Assay results as given in patent US20260364072A1, “METHODS FOR PROMOTING EXPANSION OF HUMAN CD34+ CELLS IN VIVO AND FOR PROMOTING NEURAL REGENERATION” (THE REGENTS OF THE UNIVERSITY OF CALIFORNIA, priority 2023, published 2026).
pIC50: −log10 of the molar value.

Key:
human CD34+ cells = experiment: Aged normal bone marrow CD34+ engrafted NSG-SGM3 mice, flow cytometry of PB, SP, BM; assay type: in vivo, human cells in NSG-SGM3 mice; conditions: 10 mg/kg, intravenously, twice a week for 2 weeks
From the text: (§1) Here, we established humanized mouse models using CD34^+ stem cells isolated from the peripheral blood of adult secondary AML (sAML) patients or bone marrow of normal-aged donors (63-79 years old).
FIG. 1: Rebecsinib treatment promotes human CD34^+ cells and spares CD45^+ cells Aged normal bone marrow (BM) samples were provided by Scripps Clinic La Jolla, CA. Normal human CD34^+ cells were freshly isolated with Microbeads (Miltenyi Biotech) and subsequently transduced with the ADAR1-NanoLuc reporter for 48 hours. Adult NSG-SGM3 mice (4-6 weeks) were intravenously transplanted with 100K ADAR1-NanoLuc reporter transduced CD34^+ cells. The mice were screened using the IVIS 200 imaging system and staining of peripheral blood with human CD45 monoclonal antibody. Mice with human CD45^+ cells >1% were included in the treatment cohort receiving Rebecsinib at a dose of 10 mg/kg, intravenously, twice a week for 2 weeks, with a total of 5 doses. After treatment, mice were sacrificed, and single cells were obtained from peripheral blood (PB), bone marrow (BM), and spleen (SP) for further analysis. A. IVIS 200 images of NSG-SGM3 mice intravenously transplanted with ADAR1-NanoLuc reporter transduced normal human CD34^+ cells at 18 weeks after transplantation. B. Flow cytometry gating strategies showing positive and negative controls. C.

sAML PDX mouse models = experiment: Survival of humanized sAML PDX mice; assay type: in vivo, human sAML cells in mice
Method: as §1
The mouse models were screened by staining the PB of each mouse with a human CD45 mAb. Mice with a threshold of human CD45^+ cells >1% were included in the treatment cohort for Rebecchini. The dosing plan involved administering Rebecsinib at a dose of 10 mg/kg, intravenously, twice a week for 2 weeks, with a total of 5 doses. Single cells were isolated from the mouse organs, including PB, SP, and BM, and subjected to staining with human stem cell markers and lineage cell markers.
These mice were monitored for survival throughout the study until they reached the endpoint. Survival data were analyzed using a Log-rank test.

[1] = tested on: MCL1 and SF3B3 transcripts; experiment: Pharmacodynamic splice isoform qRT-PCR in PBMCs from treated NHPs; assay type: in vivo, cynomolgus monkeys
Method: Pharmacodynamic studies were conducted on peripheral blood mononuclear cells (PBMCs) isolated from NHPs treated with escalating doses of Rebecsinib (3 mg/kg, 10 mg/kg, 15 mg/kg or 20 mg/kg) or a vehicle control and collected at 30 minute and 4 hours post-dose.
(FIG. 29G, FIG. 29H) For in vivo TK and complementary pharmacodynamic studies, NHPs were given a single injection of Rebecsinib at 3-20 mg/kg, or vehicle control, and blood samples were drawn at regular intervals to determine plasma concentrations (FIG. 29G) of the compound along with splice isoform biomarker assays to quantify MCL1 exon skipping in PBMCs isolated from treated animals (FIG. 29H, n=2 animals per group).
For quantitative analysis of splice isoform expression, RNA editing rates, and whole gene expression by qRT-PCR, cells or tissue fragments were harvested in RNA lysis buffer and total RNA was extracted using RNeasy mini or micro extraction kits (QIAGEN, Germantown, MD) following the manufacturer's protocol including a DNase incubation step to digest any trace genomic DNA present. Levels of ADAR1 variants and LSC-specific transcripts were quantified by qRT-PCR as previously described.^14 RNA-editing site-specific qRT-PCR (RESSqPCR) was performed for variants in AZIN1 transcripts.^53 Additional species-specific primers were also designed to quantify intron retention rates in cells treated with Rebecsinib as a biomarker of response to RNA splicing modulation. Specifically, for the two-step SYBR-green based assays, as previously described,^7,14,53 100-1000 ng of RNA were subjected to cDNA synthesis using the SUPERSCRIPT III™ (ThermoFisher Scientific) kit followed by qRT-PCR using SYBR GreenER (ThermoFisher Scientific) master mix according to the manufacturer's recommended procedures. qRT-PCR was performed using SYBR GREENER SUPER MIX™ (Life Technologies) on BioRad iQ5™, C1000 TOUCH™, or BioRad CFX384™ instruments. Human splice isoform-specific, RNA editing site-specific qPCR (RESSqPCR)^53. Primer sets that have not been previously published were designed and tested for efficiency followed by analyses in samples exposed to Rebecsinib, with species-specific HPRT primers used as controls. Samples with Ct<35 for the species-specific reference gene, HPRT, were included in analyses. Relative mRNA expression values were calculated using the 2^−ΔCT method, with normalization to untreated or vehicle-treated controls.^54

KG-1a AML cells = experiment: KG-1a cell viability by flow cytometry; assay type: cell-based, human; conditions: 24 hr
From the text: (FIG. 29A) Quantification of cell viability (left panel) and splicing modulation (RFP/GFP ratios, right panel) by flow cytometry analyses of the human AML cell line (KG-1a) stably transduced with a lentiviral dual-fluorescence splicing reporter vector and treated with increasing concentrations of Rebecsinib.
For generation of stably transduced splicing reporter cell lines, a previously described splicing reporter construct^31 was cloned into a lentiviral vector backbone.^52 KG-1a cells were transduced with the dual-fluorescent lentiviral splicing reporter vector, treated with various concentrations of Rebecsinib (3-fold serial dilutions from 3 μM to 4 nM) for 24 hr, washed followed by DAPI staining, and analyzed by flow cytometry for cell viability and RFP/GFP fluorescence intensity. Results were from duplicate wells of each condition. Viability of cells treated with DMSO (0.5% final concentration) was set as 100%. Nonlinear regression curve fit analysis was carried out using Prism software (GraphPad) to determine ECso values for viability and mean fluorescence intensity (MFI) of RFP and GFP.

CC[C@H](OC)[C@@H](C)[C@H]1O[C@@H]1[C@@H](O)[C@H](C)/C=C/C=C(\C)[C@H]1OC(=O)C[C@H](O)CC[C@@](C)(O)[C@@H](OC(C)=O)/C=C/[C@@H]1C [Rebecsinib]
human CD45+ cells and differentiated cells (CD14+, CD3+, CD19+) (human CD34+ cells): preserves human CD45^+ cells and differentiated cells, including CD14^+ myeloid cells, and lymphoid cells such as CD3^+ T and CD19^+ B cells | human CD34+ cells in BM (human CD34+ cells; bone marrow, p=0.046, Student's t-test): significant CD34^+ increase | human CD34+ cells in PB (human CD34+ cells; peripheral blood): increased levels of human CD34^+ cells | human CD34+ cells in SP (human CD34+ cells; spleen): increased levels of human CD34^+ cells | survival of sAML-engrafted mice (sAML PDX mouse models; compared to vehicle, fedratinib, and the combination of rebecsinib and fedratinib): survived significantly longer | survival time versus single fedratinib (sAML PDX mouse models; single rebecsinib vs single fedratinib, p=0.016, Log-rank test): significantly longer | survival time versus vehicle (sAML PDX mouse models; single rebecsinib vs vehicle, p=0.0003, Log-rank test): significantly longer | MCL1 exon skipping in PBMCs ([1]; NHP, 3, 10, 15 or 20 mg/kg, 30 minute and 4 hours post-dose): on-target splicing modulation typified by MCL1 exon skipping | splicing modulation ([1]; NHP, PD analyses): predictable, dose-dependent splicing modulation | SF3B3 intron retention in PBMCs, 4 hours ([1]; NHP, single doses of 3, 10, 15 or 20 mg/kg): detectable at 4 hours | SF3B3 intron retention in PBMCs, 30 min ([1]; NHP, single doses of 3, 10, 15 or 20 mg/kg, compared with vehicle): increased at 30 min | KG-1a AML cell survival (KG-1a AML cells): impaired CD34^+ KG-1a AML cell survival | pIC50 (KG-1a AML cells; Homo sapiens, CD34+ KG-1a AML cell survival and RFP to GFP reporter expression): ~7.00
